Test results published in ChEMBL document CHEMBL4402520, “Synthetic routes and structure-activity relationships (SAR) of anti-HIV agents: A key review” (Eur J Med Chem, 2019).
In brackets after ≈: the same amount, converted by molar mass. Values belong to the molecule of their own block, whether it stands above or below them.

Columns and labels:
[1] = molecular target: T1, Human immunodeficiency virus type 1 reverse transcriptase (Human immunodeficiency virus 1, UniProt Q72547); assay: Inhibition of wild type HIV-1 reverse transcriptase
[2] = test system: Human immunodeficiency virus 1; assay: Antiviral activity against HIV1 3B infected in human C8166 cells; assay type: functional, organism-based
[3] = Selectivity index, ratio of CC50 for human C8166 cells to EC50 for HIV1 3B infected in human C8166 cells; assay type: toxicity, cell-based; settings: read-out: Selectivity Index
[4] = test system: Human immunodeficiency virus 1; assay: Antiviral activity against HIV1 3B infected in human MT4 cells; assay type: functional, organism-based; settings: Human immunodeficiency virus 1, 3B
[5] = test system: Human immunodeficiency virus; assay: Antiviral activity against HIV; assay type: functional, organism-based; settings: Human immunodeficiency virus 1
[6] = test system: Human immunodeficiency virus 1; assay: Antiviral activity against wild type HIV1 3B infected in human MT4 cells using [3H]dGTP by radio-labelled binding assay; assay type: functional, organism-based; settings: Human immunodeficiency virus 1, 3B
[7] = test system: Human immunodeficiency virus; assay: Antiviral activity against HIV infected in human HeLa cells expressing CD4-LTR-beta-gal; assay type: functional, organism-based; settings: Human immunodeficiency virus 1, HeLa
[8] = test system: HeLa; assay: Cytotoxicity against human HeLa cells expressing CD4-LTR-beta-gal assessed as reduction in cell viability; assay type: functional
[9] = Inhibition of HIV reverse transcriptase; set-up: species or system Human immunodeficiency virus
[10] = molecular target: T1, Human immunodeficiency virus type 1 reverse transcriptase; assay: Inhibition of HIV-1 reverse transcriptase after 1 hr by ELISA
[11] = test system: C8166; assay: Cytotoxicity against human C8166 cells assessed as reduction in cell viability; assay type: functional, cell-based
[12] = test system: TZM; assay: Cytotoxicity against human TZM-bl cells; assay type: functional
[13] = test system: Human immunodeficiency virus 1; assay: Antiviral activity against wild type HIV1 3B infected in human TZM-bl cells; assay type: functional, organism-based; settings: Human immunodeficiency virus 1, 3B
[14] = test system: Human immunodeficiency virus 1; assay: Antiviral activity against HIV1; assay type: functional, organism-based
[15] = test system: Human immunodeficiency virus 1; assay: Antiviral activity against wild type HIV1 3B infected in human TZM-bl cells after 4 days by ELISA; assay type: functional, organism-based; settings: Human immunodeficiency virus 1, 3B, 96 h
[16] = Selectivity index, ratio of CC50 for human TZM-bl cells to EC50 for wild type HIV1 3B infected in human TZM-bl cells; assay type: toxicity, cell-based; settings: read-out: Selectivity Index
[17] = test system: Human immunodeficiency virus 1; assay: Antiviral activity against wild type HIV1; assay type: functional, organism-based
[18] = test system: Human immunodeficiency virus 1; assay: Antiviral activity against wild type HIV1 3B infected in human TZM-bl cells assessed as viral infection at 50 ug/ml after 1 hr relative to control; assay type: functional; settings: Human immunodeficiency virus 1, 3B
[19] = test system: TZM; assay: Cytotoxicity against human TZM-bl cells assessed as reduction in cell viability after 4 hrs by MTT assay; assay type: functional
[20] = test system: Human immunodeficiency virus 1; assay: Antiviral activity against HIV1 3B after 48 hrs […]; assay type: functional, organism-based; settings: Human immunodeficiency virus 1, 3B
[21] = test system: Human immunodeficiency virus 2; assay: Antiviral activity against HIV2 ROD after 48 hrs […]; assay type: functional, organism-based; settings: Human immunodeficiency virus 2, ROD
[22] = Human immunodeficiency virus 1, 3B, C8166

Compound: COC(=O)CCCC=C(c1cc(Cl)c(OC)c(C(=O)SC)c1)c1cc(Cl)c(OC)c(C(=O)SC)c1
- EC50 [1]: 1600 nM

Compound: CC(C)c1c(CC2CCCCC2)nc(SCC(=O)c2ccccc2)[nH]c1=O
- EC50 [2]: 0.012 to 101 nM
- selectivity ratio [3]: 691 to 6.32e+06

Compound: CC(C)c1c(CC2CCCCC2)nc(SCc2ccccc2)[nH]c1=O
- EC50 [2, 22]: 0.025 nM
- selectivity ratio [3]: 691 to 6.32e+06

Compound: CCc1c(CC2CCCCC2)nc(SCC(=O)c2ccccc2)[nH]c1=O
- EC50 [2, 22]: 0.012 nM
- selectivity ratio [3]: 6.32e+06

Compound: Cc1cc(C)cc(S(=O)(=O)c2c(C(=O)NCc3ccncc3)[nH]c3ccc(Cl)cc23)c1
- EC50 [4]: 2 nM

Compound: Cc1cc(C)cc(Cn2c(=O)cc(N)n(Cc3ccncc3)c2=O)c1
- EC50 [5]: 30 nM

Compound: O=C(O)/C(O)=C/C(=O)c1cn(Cc2ccc(F)cc2)c2cc(N3CCN(CCCCl)CC3)ccc2c1=O
- IC50 [7]: 50 nM
- CC50 [8]: > 50000 nM

Compound: O=C(CN(Cc1ccccc1)c1ccc(Cl)cc1)N1CCN(c2ccc([N+](=O)[O-])cc2)CC1
- IC50 [9]: 14200 nM

Compound: COc1ccc2c(c1)CCCN2CCC(=O)N1CCN(c2cccc(Cl)c2)CC1
- IC50 [10]: 18600 nM
- IC50 [11]: 97.5 µg/mL (≈ 236 µM)
- selectivity ratio [3]: 5.3

Compound: COC(=O)C(N)(c1c[nH]c2ccc(F)cc12)C(F)(F)F (configuration not stated)
- CC50 [12]: 49300 nM
- EC50 [13]: 45 nM

Compound: CC(C)(C)OC(=O)n1ccc2ccc(-c3ccc4ccn(Cc5cccc(C(=O)O)c5)c4c3)cc21
- IC50 [14]: 800 nM

Compound: CCOC(=O)C(N)(c1c[nH]c2cccc(C(=O)OC)c12)C(F)(F)F (configuration not stated)
- CC50 [12]: 110000 nM
- EC50 [13]: 60 nM

Compound: COc1ccc(CNC(=O)c2cc(C(C)(C)NC(=O)OCc3ccccc3)cc(O)c2O)cc1
- EC50 [14]: 150 nM

Compound: NC1=CNC(=O)/C1=N/Nc1ccc(Br)cc1
- inhibition at 50 µg/mL [18]: 98%
- Activity [19]: 40%

Compound: O=C(CSC1[Se]N=NC1c1ccc(Cl)c(Cl)c1)Nc1ccccc1Br (configuration not stated)
- EC50 [20]: > 23600 nM
- EC50 [21]: > 23600 nM

Continued, in another order:

- IC50 [6]: 82 nM
Compound: Cc1cccc(N2C(=O)CSC2c2c(F)cccc2F)n1 (configuration not stated)

- IC50 [9]: 77500 nM
Compound: COc1ccc(N2CCN(C(=O)CN(Cc3ccccc3)c3ccc(Cl)cc3)CC2)cc1

- IC50 [9]: 12300 nM
Compound: O=C(CN(Cc1ccccc1)c1ccc(Cl)cc1)N1CCN(c2cccc(Cl)c2Cl)CC1

- IC50 [9]: 16300 nM
Compound: COc1ccccc1N1CCN(C(=O)CN(Cc2ccccc2)c2ccc(Cl)cc2)CC1

- IC50 [9]: > 100000 nM
Compound: O=C(CN(Cc1ccccc1)c1ccc(Cl)cc1)N1CCN(C(c2ccccc2)c2ccccc2)CC1

- IC50 [14]: 2180 nM
Compound: O=c1[nH]c(=O)n([C@H]2C[C@H](O)[C@@H](CO)O2)cc1CCCOc1ccc(OCc2ccccc2)cc1

- EC50 [14]: 140 nM
Compound: CC(C)(NC(=O)OCc1ccccc1)c1cc(O)c(O)c(C(=O)NCc2ccccc2Cl)c1

- EC50 [15]: 12300 nM
Compound: O=C1OC(c2ccccc2Cl)C(Cl)c2ccccc21 (configuration not stated)
- CC50 [12]: 136000 nM
- selectivity ratio [16]: 11.1

- EC50 [17]: 5.8 nM
Compound: N#Cc1ccc(Nc2nccc(Oc3ccccc3F)n2)cc1

- IC50 [14]: 6680 nM
Compound: O=c1[nH]c(=O)n([C@H]2C[C@H](O)[C@@H](CO)O2)cc1C#CCOc1ccc(OCc2ccccc2)cc1
